Assays:
[1] = tested on: corn; test: Test B pre/postemergence corn; type: in vivo, Zea mays; details: Preemergence
Procedure, shortened: (§1)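 Herbicidal effect was estimated by eye on a ten-point control scale after plants spent twelve to sixteen days in a greenhouse following soil or foliar treatment. Foliar sprays targeted plants at one to four leaves; all doses were formulated in a non-phytotoxic solvent with surfactant.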

[2] = tested on: cocklebur; test: Test B pre/postemergence cocklebur; type: in vivo, Xanthium strumarium; details: Preemergence
Procedure, shortened: as §1

[3] = tested on: bamyardgrass; test: Test B flood test barnyardgrass; type: in vivo, Echinochloa crus-galli
Procedure, shortened: (§2)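 Plants were grown to the 2-leaf stage before treatment with test chemical, then held in a greenhouse for twelve to sixteen days. Injury was visually rated against untreated controls on a 0–10 scale, where 0 is no effect and 10 is complete control.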

[4] = tested on: crabgrass; test: Test B pre/postemergence crabgrass; type: in vivo, Digitaria sanguinalis; details: Preemergence
Procedure, shortened: as §1

[5] = tested on: bedstraw; test: Test B pre/postemergence bedstraw; type: in vivo, Galium aparine; details: Preemergence
Procedure, shortened: as §1

[6] = tested on: pigweed; test: Test B pre/postemergence pigweed; type: in vivo, Amaranthus retroflexus; details: Preemergence
Procedure, shortened: as §1

[7] = tested on: blackgrass; test: Test B pre/postemergence blackgrass; type: in vivo, Alopecurus myosuroides; details: Preemergence
Procedure, shortened: as §1

[8] = tested on: smallflower flatsedge; test: Test B flood test smallflower flatsedge; type: in vivo, Cyperus difformis
Procedure, shortened: as §2

[9] = tested on: surinam grass; test: Test B pre/postemergence surinam grass; type: in vivo, Brachiaria decumbens; details: Preemergence
Procedure, shortened: as §1

[10] = tested on: morningglory; test: Test B pre/postemergence morningglory; type: in vivo, Ipomoea hederacea; details: Preemergence
Procedure, shortened: as §1

[11] = tested on: wild oat; test: Test B pre/postemergence wild oat; type: in vivo, Avena fatua; details: Preemergence
Procedure, shortened: as §1

[12] = tested on: duck salad; test: Test B flood test duck salad; type: in vivo, Heteranthera limosa
Procedure, shortened: as §2

[13] = tested on: wheat; test: Test B pre/postemergence wheat; type: in vivo, Triticum aestivum; details: Preemergence
Procedure, shortened: as §1

[14] = tested on: sugar beet; test: Test B pre/postemergence sugar beet; type: in vivo, Beta vulgaris; details: Preemergence
Procedure, shortened: as §1

[15] = tested on: rice; test: Test B flood test rice; type: in vivo, Oryza sativa
Procedure, shortened: as §2

[16] = tested on: velvetleaf; test: Test B pre/postemergence velvetleaf; type: in vivo, Abutilon theophrasti; details: Preemergence
Procedure, shortened: as §1

[17] = tested on: soybean; test: Test B pre/postemergence soybean; type: in vivo, Glycine max; details: Preemergence
Procedure, shortened: as §1

[18] = tested on: purple nutsedge; test: Test B pre/postemergence purple nutsedge; type: in vivo, Cyperus rotundus; details: Preemergence
Procedure, shortened: as §1

[19] = tested on: rape; test: Test B pre/postemergence rape; type: in vivo, Brassica napus; details: Preemergence
Procedure, shortened: as §1

[20] = tested on: giant foxtail; test: Test B pre/postemergence giant foxtail; type: in vivo, Setaria faberii; details: Preemergence
Procedure, shortened: as §1

[21] = Rate 125 g/ha, scale of 0 to 10 where 0 is no effect and 10 is complete control
[22] = Rate 250 g/ha, scale 0 (no effect) to 10 (complete control)
[23] = Rate 500 g/ha, scale 0 to 10 (0 no effect, 10 complete control)
[24] = Rate 1000 g/ha, scale 0 to 10 (0 no effect, 10 complete control)
[25] = Pre-emergence, Rate 62 g/ha, scale 0 to 10, 0 is no effect, 10 is complete control
[26] = Rate 125 g/ha, Pre-emergence section (flood test species), scale 0 to 10, 0 no effect, 10 complete control
[27] = Rate 250 g/ha, Pre-emergence (flood test species), scale 0 to 10, 0 is no effect, 10 is complete control
[28] = Rate 500 g/ha, Pre-emergence section of Table B, 0 to 10 scale (0 no effect, 10 complete control)

SMILES: COC(=O)C(c1ccccc1)n1c(=O)on(C(=O)N(c2ccc(Cl)cc2)C(C)C)c1=O (centres unmarked) [Compound 724]
- Plant response rating, Corn [1, 21]: 0
- Corn plant response rating [1, 22]: 0
- Corn plant response rating [1, 23]: 0
- Plant response rating, Corn [1, 24]: 0
- Plant response rating, Cocklebur [2, 21]: 0
- Cocklebur plant response rating [2, 22]: 0
- Cocklebur plant response rating [2, 23]: 0
- Plant response rating, Cocklebur [2, 24]: 0
- Barnyardgrass plant response rating [3, 25]: 0
- Barnyardgrass plant response rating [3, 26]: 0
- Barnyardgrass plant response rating [3, 27]: 0
- Barnyardgrass plant response rating [3, 28]: 0
- Plant response rating, Crabgrass [4, 21]: 3
- Crabgrass plant response rating [4, 22]: 7
- Crabgrass plant response rating [4, 23]: 7
- Plant response rating, Crabgrass [4, 24]: 9
- Plant response rating, Bedstraw [5, 21]: 0
- Bedstraw plant response rating [5, 22]: 0
- Bedstraw plant response rating [5, 23]: 0
- Plant response rating, Bedstraw [5, 24]: 0
- Plant response rating, Redroot pigweed [6, 21]: 0
- Redroot pigweed plant response rating [6, 22]: 0
- Redroot pigweed plant response rating [6, 23]: 0
- Plant response rating, Redroot pigweed [6, 24]: 3
- Plant response rating, Blackgrass [7, 21]: 0
- Blackgrass plant response rating [7, 22]: 0
- Blackgrass plant response rating [7, 23]: 0
- Plant response rating, Blackgrass [7, 24]: 2
- S. Flatsedge plant response rating [8, 25]: 0
- S. Flatsedge plant response rating [8, 26]: 0
- S. Flatsedge plant response rating [8, 27]: 0
- S. Flatsedge plant response rating [8, 28]: 0
- Plant response rating, B. signalgrass [9, 21]: 0
- B. signalgrass plant response rating [9, 22]: 0
- B. signalgrass plant response rating [9, 23]: 0
- Plant response rating, B. signalgrass [9, 24]: 0
- Plant response rating, Morningglory [10, 21]: 0
- Morningglory plant response rating [10, 22]: 0
- Morningglory plant response rating [10, 23]: 0
- Plant response rating, Morningglory [10, 24]: 0
- Plant response rating, Wild oats [11, 21]: 0
- Wild oats plant response rating [11, 22]: 0
- Wild oats plant response rating [11, 23]: 0
- Plant response rating, Wild oats [11, 24]: 0
- Ducksalad plant response rating [12, 25]: 0
- Ducksalad plant response rating [12, 26]: 0
- Ducksalad plant response rating [12, 27]: 0
- Ducksalad plant response rating [12, 28]: 0
- Plant response rating, Wheat [13, 21]: 0
- Wheat plant response rating [13, 22]: 0
- Wheat plant response rating [13, 23]: 0
- Plant response rating, Wheat [13, 24]: 0
- Plant response rating, Sugarbeets [14, 21]: 0
- Sugarbeets plant response rating [14, 22]: 0
- Sugarbeets plant response rating [14, 23]: 0
- Plant response rating, Sugarbeets [14, 24]: 0
- Rice plant response rating [15, 25]: 0
- Rice plant response rating [15, 26]: 0
- Rice plant response rating [15, 27]: 0
- Rice plant response rating [15, 28]: 0
- Plant response rating, Velvetleaf [16, 21]: 0
- Velvetleaf plant response rating [16, 22]: 0
- Velvetleaf plant response rating [16, 23]: 0
- Plant response rating, Velvetleaf [16, 24]: 0
- Plant response rating, Soybean [17, 21]: 0
- Soybean plant response rating [17, 22]: 0
- Soybean plant response rating [17, 23]: 0
- Plant response rating, Soybean [17, 24]: 0
- Plant response rating, Nutsedge [18, 21]: 0
- Nutsedge plant response rating [18, 22]: 0
- Nutsedge plant response rating [18, 23]: 0
- Plant response rating, Nutsedge [18, 24]: 0
- Plant response rating, Rape [19, 21]: 0
- Rape plant response rating [19, 22]: 0
- Rape plant response rating [19, 23]: 0
- Plant response rating, Rape [19, 24]: 0
- Plant response rating, Giant foxtail [20, 21]: 0
- Giant foxtail plant response rating [20, 22]: 7
- Giant foxtail plant response rating [20, 23]: 9
- Plant response rating, Giant foxtail [20, 24]: 10
